Active and inactive are the calls of the source.
Molecular target: T1, RNA-binding protein pos-1 (Caenorhabditis elegans, UniProt G5EF15)
T1 sequence (G5EF15 whole entry): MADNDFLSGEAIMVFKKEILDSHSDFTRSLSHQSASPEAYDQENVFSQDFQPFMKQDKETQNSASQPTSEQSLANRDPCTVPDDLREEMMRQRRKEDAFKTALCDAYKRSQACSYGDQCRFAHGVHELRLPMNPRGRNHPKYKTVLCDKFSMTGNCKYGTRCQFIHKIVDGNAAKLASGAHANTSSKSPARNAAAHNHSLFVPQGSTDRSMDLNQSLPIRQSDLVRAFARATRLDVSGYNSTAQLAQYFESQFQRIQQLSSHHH
Experiment: inhibitors of POS-1/mex-3 RNA binding, dose response, biochemical, fluorescence polarization (AID 1964);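 also: purified POS-1 fused to maltose binding protein made in E. coli; potency of compounds blocking POS-1 binding to fluorescent RNA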
Conditions: not given

Compound | EC50
CC1(OC(=O)c2cnc3ccccc3n2)C(=O)C=C2C=C(c3ccc(C#N)cc3)OC=C2C1=O (centres undefined) | 39.8 µM (active)
COC(=O)CCCC1=CC2=CC(=O)C(C)(OC(=O)c3ccc(Cl)nc3)C(=O)C2=CO1 (centres undefined) | > 150 µM (not active)
Cc1ccc(S(=O)(=O)C(C#N)c2nc3ccccc3nc2N2CC(C)OC(C)C2)cc1C (centres undefined) | 4.67 µM (inconclusive)
O=C1NC(=O)N(CCc2ccccc2)C(=O)/C1=C/NNC(=O)c1ccccc1 | 40.2 µM (active)
CC1(OC(=O)c2ccco2)C(=O)C=C2C=C(c3ccsc3)OC=C2C1=O (centres undefined) | > 300 µM (not active)
CCN(CC)C(=O)CNc1ccc(C(F)(F)F)cc1[N+](=O)[O-] | 40 µM (inconclusive)
CCCNS(=O)(=O)c1ccc(CCC(=O)NCc2ccc3c(c2)OCO3)cc1 | > 300 µM (not active)
Cc1ccc(/C=C2\C(=O)NC(=S)N(c3ccc(F)cc3)C2=O)o1 | > 300 µM (not active)
CCN(CC)c1ccc(/C=c2/sc3nnc(-c4ccccc4C)n3c2=O)cc1 | > 300 µM (not active)
O=C(O[C@@H]1Cc2c(O)cc(O)cc2O[C@@H]1c1cc(O)c(O)c(O)c1)c1cc(O)c(O)c(O)c1 [EPIGALOCATECHIN GALLATE] | 5.89 µM (inconclusive)

Tested on: H4
Experiment: Luminescence Cell-Based Dose Response HTS to Identify Activators of 5'UTR Stem-Loop Driven Prion Protein mRNA Translation in H4 Neuroglioblastoma Cells. [Related pubchem assays: 1829 (Project Summary), 1814 (Primary HTS)]
Assay type: functional
Conditions: Homo sapiens

Compound | EC50
N#C/C(=C\c1ccc(N2CCCCC2)o1)C(=O)Nc1cccc(Br)c1 | 0.102 µM (active)
O=C(NC1CC1)c1cccc(Nc2ccc(-c3ccc4c(c3)OCCO4)nn2)c1 | 52.2 µM (active)

Molecular target: T2, Zinc finger protein mex-5 (Caenorhabditis elegans, UniProt Q9XUB2)
T2 sequence (Q9XUB2 whole entry): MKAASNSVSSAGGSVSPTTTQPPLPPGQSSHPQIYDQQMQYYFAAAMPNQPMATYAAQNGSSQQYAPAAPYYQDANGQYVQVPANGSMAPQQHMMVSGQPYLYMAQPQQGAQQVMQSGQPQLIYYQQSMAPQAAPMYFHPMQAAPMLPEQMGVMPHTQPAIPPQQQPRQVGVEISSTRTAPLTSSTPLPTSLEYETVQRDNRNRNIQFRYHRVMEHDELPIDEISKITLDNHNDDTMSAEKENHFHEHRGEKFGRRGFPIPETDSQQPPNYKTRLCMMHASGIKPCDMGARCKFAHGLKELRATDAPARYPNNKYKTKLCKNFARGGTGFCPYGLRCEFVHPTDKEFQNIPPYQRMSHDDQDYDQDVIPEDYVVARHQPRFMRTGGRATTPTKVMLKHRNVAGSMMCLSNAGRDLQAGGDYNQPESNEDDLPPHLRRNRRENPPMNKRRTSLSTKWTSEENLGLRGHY
Experiment: MEX-5/TCR-2 RNA interaction inhibitors, dose response, biochemical, C. elegans, fluorescence polarization (AID 1960)
Conditions: not given

Compound | EC50
CC1(OC(=O)c2cnc3ccccc3n2)C(=O)C=C2C=C(c3ccc(C#N)cc3)OC=C2C1=O (centres undefined) | 44.9 µM (active)
COC(=O)CCCC1=CC2=CC(=O)C(C)(OC(=O)c3ccc(Cl)nc3)C(=O)C2=CO1 (centres undefined) | 18.8 µM (active)
Cc1ccc(S(=O)(=O)C(C#N)c2nc3ccccc3nc2N2CC(C)OC(C)C2)cc1C (centres undefined) | 26.1 µM (inconclusive)
O=C1NC(=O)N(CCc2ccccc2)C(=O)/C1=C/NNC(=O)c1ccccc1 | > 150 µM (not active)
CC1(OC(=O)c2ccco2)C(=O)C=C2C=C(c3ccsc3)OC=C2C1=O (centres undefined) | 23.1 µM (active)
CCN(CC)C(=O)CNc1ccc(C(F)(F)F)cc1[N+](=O)[O-] | > 300 µM (not active)
CCCNS(=O)(=O)c1ccc(CCC(=O)NCc2ccc3c(c2)OCO3)cc1 | > 300 µM (not active)
Cc1ccc(/C=C2\C(=O)NC(=S)N(c3ccc(F)cc3)C2=O)o1 | 43.9 µM (active)
CCN(CC)c1ccc(/C=c2/sc3nnc(-c4ccccc4C)n3c2=O)cc1 | > 300 µM (inconclusive)
O=C(O[C@@H]1Cc2c(O)cc(O)cc2O[C@@H]1c1cc(O)c(O)c(O)c1)c1cc(O)c(O)c(O)c1 [EPIGALOCATECHIN GALLATE] | 0.727 µM (active)

Molecular target: T3, Heat shock factor protein 1 (Mus musculus, UniProt P38532)
T3 sequence (P38532 whole entry): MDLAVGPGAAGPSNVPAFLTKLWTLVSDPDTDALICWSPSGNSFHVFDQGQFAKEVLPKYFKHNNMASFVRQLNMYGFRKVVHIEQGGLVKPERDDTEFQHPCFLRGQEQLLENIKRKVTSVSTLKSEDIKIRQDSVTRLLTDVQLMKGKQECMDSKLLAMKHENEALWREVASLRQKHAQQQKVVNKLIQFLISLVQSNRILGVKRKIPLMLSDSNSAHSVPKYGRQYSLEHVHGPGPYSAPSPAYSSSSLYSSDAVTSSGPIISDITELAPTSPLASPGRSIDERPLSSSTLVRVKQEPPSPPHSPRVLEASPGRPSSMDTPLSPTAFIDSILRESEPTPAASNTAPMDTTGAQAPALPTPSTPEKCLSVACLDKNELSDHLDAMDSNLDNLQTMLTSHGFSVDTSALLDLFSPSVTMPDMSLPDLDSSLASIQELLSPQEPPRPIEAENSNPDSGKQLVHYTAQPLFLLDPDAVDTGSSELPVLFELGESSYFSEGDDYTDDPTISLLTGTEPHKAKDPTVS
Experiment: HSF1 potentiators in luciferase reporter cells, confirmation, cell-based, NIH3T3, luminescence, dose retest (AID 435004);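 also: stress induced by proteasome inhibitor MG132 added 30 min after compound; luciferase reporter driven by HSF1 response element in NIH3T3 cells; actives raise luminescence as potentiators of the MG132 stress response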
Assay type: functional
Conditions: not given

Compound | EC50
CC(C)OC(=O)c1ccc(COc2ccc3ccc(=O)oc3c2)o1 | 66.6 µM (active)
COc1ccc(-n2c(=O)c3c4c(sc3n(CC(N)=O)c2=O)CCCCC4)cc1 | > 260 µM (inactive)
CC(C)(C)OC(=O)N1CSC[C@H]1C(=O)NC[C@H](CC(=O)O)c1ccc(Cl)cc1 | > 260 µM (inactive)
COc1cccc(N/C(SCc2cccc([N+](=O)[O-])c2)=C(/C#N)C(=O)NCc2cccs2)c1 | > 260 µM (inactive)
Cc1cccc(C2C3=C(CCCC3=O)N=C3c4ccccc4C(=O)C32)c1 (centres undefined) | 26.1 µM (active)
COc1ccccc1C(=O)CSc1nnc(-c2ccco2)o1 | 65 µM (active)
Cc1ccc(-c2nc3ccccc3[nH]2)cc1NC(=O)c1ccc2c(c1)OCO2 | 70.2 µM (active)
Cc1ccc(C)c(NC2CCCCC2NS(=O)(=O)c2ccccc2)c1 (centres undefined) | > 260 µM (inactive)
CCCNC(=O)NC(=O)CSc1cccc(C(F)(F)F)c1 | > 260 µM (inactive)
CCc1nc(O)c(C#N)c2c1CSC(C)(C)C2 | > 260 µM (inactive)
COc1ccc(-n2cnnc2SCC(=O)N(C)C2CCS(=O)(=O)C2)cc1 (centres undefined) | > 260 µM (inactive)
C/C=C(/C)C(=O)Nc1cccc(C2=NOC3(C2)C[C@@H](C(N)=O)N(C(=O)CC)C3)c1 (some centres undefined) | > 260 µM (inactive)
Nc1ncnc2c1CCC2 | > 260 µM (inactive)
COc1cccc(N2CCN(S(=O)(=O)c3ccc(-c4coc(C)n4)cc3)CC2)c1 | > 260 µM (inactive)
ClCC1CS/C(=N\C23CC4CC(CC(C4)C2)C3)O1 (centres undefined) | > 260 µM (inactive)
Cn1c(CN2CCN(c3ccc(Cl)cc3)CC2)nc2ccccc21 | > 260 µM (inactive)

Molecular target: Cytochrome P450 2C19 (Homo sapiens, UniProt P33261)
Sequence (P33261 whole entry): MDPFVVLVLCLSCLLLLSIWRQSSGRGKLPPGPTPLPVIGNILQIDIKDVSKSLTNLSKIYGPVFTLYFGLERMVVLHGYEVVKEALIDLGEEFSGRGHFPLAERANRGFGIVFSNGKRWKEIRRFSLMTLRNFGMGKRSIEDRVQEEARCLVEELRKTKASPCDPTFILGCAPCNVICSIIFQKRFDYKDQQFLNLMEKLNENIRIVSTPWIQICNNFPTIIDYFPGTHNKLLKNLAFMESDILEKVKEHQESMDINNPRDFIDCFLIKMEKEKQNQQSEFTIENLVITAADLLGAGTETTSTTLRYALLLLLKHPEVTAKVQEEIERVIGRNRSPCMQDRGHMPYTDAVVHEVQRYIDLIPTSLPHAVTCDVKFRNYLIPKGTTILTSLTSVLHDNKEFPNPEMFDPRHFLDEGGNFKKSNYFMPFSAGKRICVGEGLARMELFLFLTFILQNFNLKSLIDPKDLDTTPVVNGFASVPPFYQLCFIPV
Experiment: Cytochrome panel assay with activity outcomes. Panel member name: p450-cyp2c19 Compounds with AC50 equal or less than 10 uM are considered active
Assay type: functional
Conditions: read-out: AC50

Compound | AC50
Clc1ccccc1-c1cc(NCCN2CCOCC2)ncn1 | 25.1 µM (inconclusive)
CCC(C)(C)NC(=O)c1ccc2c(c1)N(CC(=O)OC)C(=O)C(C)(C)O2 | 20 µM (inconclusive)
NC(=NO)C1COc2ccccc2O1 (centres undefined) | 11.2 µM (inconclusive)
COc1cccc(-c2nc(C[S+]([O-])CC(=O)N3CCC4(CC3)OCCO4)c(C)o2)c1 (centres undefined) | 14.1 µM (inconclusive)

Molecular target: T4, Cytochrome P450 1A2 (Homo sapiens, UniProt P05177);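 also: PubChem cytochrome P450 panel assay, CYP1A2 panel member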
T4 sequence (P05177 whole entry): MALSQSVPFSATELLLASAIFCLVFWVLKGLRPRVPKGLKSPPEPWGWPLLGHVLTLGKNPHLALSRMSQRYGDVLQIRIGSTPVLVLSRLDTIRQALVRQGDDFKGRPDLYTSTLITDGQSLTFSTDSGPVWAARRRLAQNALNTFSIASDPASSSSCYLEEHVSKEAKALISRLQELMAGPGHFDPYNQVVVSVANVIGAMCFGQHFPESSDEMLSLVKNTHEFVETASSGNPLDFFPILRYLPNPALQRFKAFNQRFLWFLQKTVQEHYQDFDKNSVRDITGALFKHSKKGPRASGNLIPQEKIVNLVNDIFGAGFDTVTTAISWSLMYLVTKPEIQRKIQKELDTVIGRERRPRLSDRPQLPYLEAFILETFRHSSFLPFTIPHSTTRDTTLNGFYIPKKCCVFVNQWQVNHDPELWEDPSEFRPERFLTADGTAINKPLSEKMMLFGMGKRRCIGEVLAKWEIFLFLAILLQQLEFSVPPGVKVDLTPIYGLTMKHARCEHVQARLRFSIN
Conditions: not given

Compound | AC50
O=C(NC1CCCCC1)C(c1cccs1)N(C(=O)C(F)(F)F)c1ccccc1 (centres undefined) | 2.51 µM (inconclusive)
Clc1ccccc1-c1cc(NCCN2CCOCC2)ncn1 | 31.6 µM (inconclusive)
O=c1[nH]c(=O)n([C@H]2C[C@H](O)[C@H](CO)O2)cc1/C=C\Br | 31.6 µM (inconclusive)
CN(C)C(=O)c1ccc(-c2cc(NCc3cccnc3)ncn2)cc1 | 20 µM (inconclusive)
COCC1C2CC[C@H]3C(OCc4ccc(OC)cc4)OC[C@]4(C)[C@H]3C2=C(CN4C(=O)OC(C)(C)C)[C@H](C)C1COC (some centres undefined) | 15.8 µM (inconclusive)
CCC(C)(C)NC(=O)c1ccc2c(c1)N(CC(=O)OC)C(=O)C(C)(C)O2 | 0.158 µM (inconclusive)
NC(=NO)C1COc2ccccc2O1 (centres undefined) | 14.1 µM (inconclusive)
COc1cccc(-c2nc(C[S+]([O-])CC(=O)N3CCC4(CC3)OCCO4)c(C)o2)c1 (centres undefined) | 25.1 µM (inconclusive)
COc1ccccc1N1CCN(c2nc(-c3ccccc3)cc(C(F)(F)F)n2)CC1 | 0.631 µM (inconclusive)
CCN1C(=O)/C(=C\c2c[nH]c3ccccc23)S/C1=N\c1ccc(C)cc1 | 6.31 µM (inconclusive)
C[C@@H]1c2ccccc2Cn2cc3c(c21)C(=O)c1cccc(O[P@@](=O)(O)OCc2ccccc2)c1C3=O | 3.16 µM (inconclusive)
CC(C)(S)[C@H](N)C(=O)O | 6.31 µM (inconclusive)

Molecular target: Cytochrome P450 3A4 (Homo sapiens, UniProt P08684);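 also: CYP3A4 tested as one member of a cytochrome P450 panel screen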
Sequence (P08684 whole entry): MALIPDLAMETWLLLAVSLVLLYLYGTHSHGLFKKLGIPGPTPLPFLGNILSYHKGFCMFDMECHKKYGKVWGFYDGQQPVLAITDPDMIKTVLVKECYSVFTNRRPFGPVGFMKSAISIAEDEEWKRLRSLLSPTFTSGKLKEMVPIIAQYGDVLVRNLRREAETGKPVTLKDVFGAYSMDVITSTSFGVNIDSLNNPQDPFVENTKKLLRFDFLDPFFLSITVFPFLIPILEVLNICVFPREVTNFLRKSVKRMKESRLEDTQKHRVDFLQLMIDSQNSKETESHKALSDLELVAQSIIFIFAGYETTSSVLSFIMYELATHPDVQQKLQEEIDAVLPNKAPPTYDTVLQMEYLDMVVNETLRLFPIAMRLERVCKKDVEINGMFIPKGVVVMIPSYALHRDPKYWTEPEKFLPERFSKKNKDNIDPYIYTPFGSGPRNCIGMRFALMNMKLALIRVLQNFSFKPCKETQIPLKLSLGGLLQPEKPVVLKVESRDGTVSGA
Conditions: not given

Compound | AC50
O=c1[nH]c(=O)n([C@H]2C[C@H](O)[C@H](CO)O2)cc1/C=C\Br | 20 µM (inconclusive)
COc1cccc(-c2nc(C[S+]([O-])CC(=O)N3CCC4(CC3)OCCO4)c(C)o2)c1 (centres undefined) | 12.6 µM (inconclusive)

Molecular target: Cytochrome P450 2C9 (Homo sapiens, UniProt P11712)
Sequence (P11712 whole entry): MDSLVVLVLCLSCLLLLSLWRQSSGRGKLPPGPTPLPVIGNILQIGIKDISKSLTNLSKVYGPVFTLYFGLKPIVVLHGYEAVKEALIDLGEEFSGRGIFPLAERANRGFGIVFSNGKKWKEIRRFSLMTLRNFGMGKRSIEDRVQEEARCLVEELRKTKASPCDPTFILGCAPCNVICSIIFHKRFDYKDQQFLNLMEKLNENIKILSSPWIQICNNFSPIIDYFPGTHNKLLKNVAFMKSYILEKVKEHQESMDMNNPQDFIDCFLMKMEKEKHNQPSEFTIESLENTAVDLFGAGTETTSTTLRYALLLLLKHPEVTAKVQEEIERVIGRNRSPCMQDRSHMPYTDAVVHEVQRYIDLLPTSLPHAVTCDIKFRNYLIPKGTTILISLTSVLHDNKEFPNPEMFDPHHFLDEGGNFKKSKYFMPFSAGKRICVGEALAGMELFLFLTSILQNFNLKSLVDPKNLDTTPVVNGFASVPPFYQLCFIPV
Conditions: not given

Compound | AC50
COCC1C2CC[C@H]3C(OCc4ccc(OC)cc4)OC[C@]4(C)[C@H]3C2=C(CN4C(=O)OC(C)(C)C)[C@H](C)C1COC (some centres undefined) | 15.8 µM (inconclusive)
NC(=NO)C1COc2ccccc2O1 (centres undefined) | 2.51 µM (inconclusive)
COc1cccc(-c2nc(C[S+]([O-])CC(=O)N3CCC4(CC3)OCCO4)c(C)o2)c1 (centres undefined) | 31.6 µM (inconclusive)

— ChEMBL document CHEMBL1201862, “PubChem BioAssay data set” (2004)
